What was measured:
[1] = system: K. pneumoniae S1-002 (blaVIM-4+); experiment: Broth microdilution MIC of meropenem in absence and presence of MBL inhibitor, S1-002; type: cell-based; conditions: MBL inhibitor fixed at 32 μg/ml, Mueller-Hinton broth, duplicate
Protocol: (§1) This method was performed in agreement with the CLSI recommendations (document M07-A10, 2015, “Methods for Dilution Antimicrobial Susceptibility Tests for Bacteria That Grow Aerobically”).
(§2) MIC values of meropenem (MEM) were determined in duplicate in Mueller-Hinton broth as recommended by CLSI (document M07-A10, 2015), in absence and presence of a fixed concentration of MBL inhibitor (32 μg/ml).

VIM-2 = VIM-2 (Escherichia coli, UniProt Q5U7L7); experiment: Enzymatic assay for determination of inhibition constants, reporter substrate method, purified VIM-2; type: biochemical; conditions: for Ki: isolated MBL, competitive inhibition model, read-out: Ki VIM-2; for % inhibition VIM-2: at 100 μM (maximal tested concentration);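 on all read-outs here: purified VIM-2 hydrolysing a reporter substrate (imipenem, meropenem, cefotaxime or nitrocefin), reaction rate read as absorbance change, HEPES 50 mM at pH 7.5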
Protocol: (§3) The reaction rate was measured as the variation of absorbance observed upon substrate hydrolysis in a UV-Vis spectrophotometer or microplate reader at a wavelength of 300 nm (imipenem, meropenem), 260 nm (cefotaxime) or 482 nm (nitrocefin) in 50 mM HEPES buffer (pH 7.5) and in the presence of a purified MBL enzyme (such as VIM-1, VIM-2, VIM-4, NDM-1 and IMP-1, at a final concentration ranging 1-70 nM).
(§4) The inhibition constants (Ki) were determined on the basis of a model of competitive inhibition by analyzing the dependence of the ratio v0/vi (v0, hydrolysis velocity in the absence of inhibitor; vi, hydrolysis velocity in the presence of inhibitor) as a function of [I] as already described [Docquier J. D., Lamotte-Brasseur J., Galleni M., Amicosante G., Frère J. M., Rossolini G. M. (2003) J. Antimicrob. […] The slope of the plot of v0/vi vs [I], which corresponds to Km^S/(Km^S+[S])Ki (where Km^S is the Km value of the reporter substrate and [S] its concentration in the reaction mixture) and allowed the calculation of the Ki value. Alternatively, a Dixon plot analysis was carried out, by measuring the initial hydrolysis rates in the presence of variable concentrations of inhibitor and substrate.

NDM-1 = NDM-1 (Klebsiella pneumoniae, UniProt C7C422); experiment: Enzymatic assay for determination of inhibition constants, reporter substrate method, purified NDM-1; type: biochemical; conditions: for Ki: isolated MBL, competitive inhibition model; for % inhibition NDM-1: at 100 μM (maximal tested concentration);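 on all read-outs here: purified enzyme activity followed as absorbance change from reporter substrate hydrolysis on a UV-Vis spectrophotometer or plate reader, 50 mM HEPES pH 7.5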
Sequence of NDM-1 (C7C422 29-270, looked up, species assumed): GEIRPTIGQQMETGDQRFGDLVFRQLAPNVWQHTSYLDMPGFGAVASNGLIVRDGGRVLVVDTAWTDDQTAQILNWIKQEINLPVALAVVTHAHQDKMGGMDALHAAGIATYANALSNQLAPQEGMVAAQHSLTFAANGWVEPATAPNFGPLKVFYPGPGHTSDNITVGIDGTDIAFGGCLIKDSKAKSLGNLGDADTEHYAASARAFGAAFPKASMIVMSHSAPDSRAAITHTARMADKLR
Protocol: as §3, §4

[2] = system: K. pneumoniae SI-001 (blaVIM-1+); experiment: Broth microdilution MIC of meropenem in absence and presence of MBL inhibitor, SI-001; type: cell-based; conditions: MBL inhibitor fixed at 32 μg/ml, Mueller-Hinton broth, duplicate
Protocol: as §1, §2

VIM-1 = VIM-1 (Pseudomonas aeruginosa, UniProt A0A0F7KYQ8); experiment: Enzymatic assay for determination of inhibition constants, reporter substrate method, purified VIM-1; type: biochemical; conditions: for Ki: isolated MBL, competitive inhibition model;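 on all read-outs here: initial hydrolysis rates of a reporter β-lactam (imipenem, meropenem, cefotaxime or nitrocefin) followed by absorbance change, purified enzyme at 1–70 nM in 50 mM HEPES pH 7.5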
IMP-1 = IMP-1 (Serratia marcescens, UniProt P52699); experiment: Enzymatic assay for determination of inhibition constants, reporter substrate method, purified IMP-1; type: biochemical; conditions: for Ki: isolated MBL, competitive inhibition model; for % inhibition IMP-1: at 100 μM (maximal tested concentration);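 on all read-outs here: purified IMP-1 (1-70 nM) hydrolysing a reporter substrate, initial rates followed as absorbance change at 260, 300 or 482 nm in 50 mM HEPES pH 7.5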
Sequence of IMP-1 (P52699 19-246, looked up, species assumed): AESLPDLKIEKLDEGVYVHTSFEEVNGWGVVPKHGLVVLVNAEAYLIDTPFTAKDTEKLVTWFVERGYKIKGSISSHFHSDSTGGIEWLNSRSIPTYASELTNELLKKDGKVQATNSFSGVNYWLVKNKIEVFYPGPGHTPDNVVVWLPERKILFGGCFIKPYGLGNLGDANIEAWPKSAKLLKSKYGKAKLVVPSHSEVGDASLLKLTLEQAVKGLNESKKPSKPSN
Protocol: as §3, §4

VIM-4 = VIM-4 (Pseudomonas aeruginosa, UniProt Q8KRJ3); experiment: Enzymatic assay for determination of inhibition constants, reporter substrate method, purified VIM-4; type: biochemical; conditions: at 100 μM (maximal tested concentration);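 further: purified VIM-4 (1-70 nM) in 50 mM HEPES pH 7.5, reporter substrate hydrolysis rate tracked by absorbance change (nitrocefin 482 nm, imipenem or meropenem 300 nm, cefotaxime 260 nm)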
Protocol: as §3, §4

Row | SMILES | MIC potentiation of meropenem (x.log2 dilutions), K. pneumoniae S1-002 (blaVIM-4+) [1] [log2 dilutions] | Ki (VIM-2) [µM] | Ki (NDM-1) [µM] | MIC potentiation of meropenem (x.log2 dilutions), K. pneumoniae SI-001 (blaVIM-1+) [2] [log2 dilutions] | Ki (VIM-1) [µM] | Ki (IMP-1) [µM] | % inhibition NDM-1 (NDM-1) [% at 100 μM] | % inhibition IMP-1 (IMP-1) [% at 100 μM] | % inhibition VIM-4 (VIM-4) [% at 100 μM] | % inhibition VIM-2 (VIM-2) [% at 100 μM] | % inhibition VIM-1 (VIM-1; at 100 μM (maximal tested concentration)) [% at 100 μM]
1 | O=C(O)c1ccccc1CCn1c(-c2cccc(-c3ccccc3)c2)n[nH]c1=S [Compound 39, 5-(3-Biphenyl)-4-[2-(2-carboxyphenyl)ethyl]-1,2,4-triazole-3-thione] | ≥4 | < 1 | > 100 | 3 | 1 to 10 | > 100 | – | – | – | – | –
2 | Oc1ccc(CCn2c(-c3cccc(-c4ccccc4)c3)n[nH]c2=S)c(O)c1 [Compound 42, 5-(3-Biphenyl)-4-[2-(2,4-dihydroxyphenyl)ethyl]-1,2,4-triazole-3-thione] | ≥4 | 1 to 10 | 10 to 100 | ≥4 | < 1 | > 100 | – | – | – | – | –
3 | O=C(O)c1ccccc1CCn1c(-c2cccc(OCCN3CCOCC3)c2)n[nH]c1=S [Compound 62, o-(2-{3-[m-(2-Morpholinoethoxy)phenyl]-5-thioxo-1,4-dihydro-1,2,4-triazol-4-yl}ethyl)benzoic acid] | 3 | < 1 | > 100 | 2 | 1 to 10 | > 100 | – | – | – | – | –
4 | CN1CCN(CCOc2cccc(-c3n[nH]c(=S)n3CCc3ccccc3C(=O)O)c2)CC1 [Compound 63, o-[2-(3-{m-[2-(4-Methyl-1-piperazinyl)ethoxy]phenyl}-5-thioxo-1,4-dihydro-1,2,4-triazol-4-yl)ethyl]benzoic acid] | 3 | < 1 | > 100 | 2 | 1 to 10 | > 100 | – | – | – | – | –
5 | Cn1cccc1-c1n[nH]c(=S)n1CCSCc1ccccc1 [Compound 64, 4-[2-(Benzylthio)ethyl]-5-(1-methyl-1H-pyrrol-2-yl)-2,4-dihydro-1,2,4-triazole-3-thione] | ≥4 | < 1 | – | 3 | < 1 | – | 75 | 90 | – | – | –
6 | O=C(O)CCSCCn1c(-c2ccccc2)n[nH]c1=S [Compound 66, [2-(3-Phenyl-5-thioxo-1,4-dihydro-1,2,4-triazol-4-yl)ethylthio]propionic acid] | ≥4 | 1 to 10 | – | 3 | 1 to 10 | – | 60 | 65 | – | – | –
7 | O=C(O)C(CCCn1c(-c2ccccc2)n[nH]c1=S)NCc1cccc(O)c1O (centres unmarked) [Compound 67] | 2 | – | > 100 | 2 | – | > 100 | – | – | 60 | 55 | 70
8 | O=C(O)C(CCCn1c(-c2ccccc2)n[nH]c1=S)N(Cc1ccccc1)Cc1ccccc1 (centres unmarked) [Compound 68, 2-[Bis(phenylmethyl)amino]-5-(3-phenyl-5-sulfanylidene-4,5-dihydro-1H-1,2,4-triazol-4-yl)pentanoic acid] | 2 | – | > 100 | 2 | > 100 | > 100 | – | – | 65 | 65 | –
9 | O=C(O)C(CCCn1c(-c2ccccc2)n[nH]c1=S)N(Cc1c[nH]cn1)Cc1c[nH]cn1 (centres unmarked) [Compound 69, 2-[Bis(1H-imidazol-5-ylmethyl)amino]-5-(3-phenyl-5-sulfanylidene-4,5-dihydro-1H-1,2,4-triazol-4-yl)pentanoic acid] | ≥4 | < 1 | – | ≥4 | < 1 | > 100 | 85 | – | – | – | –
10 | S=c1[nH]nc(-c2ccccc2)n1CCSc1ccccc1 [Compound 70, 5-Phenyl-4-[2-(phenylthio)ethyl]-2,4-dihydro-1,2,4-triazole-3-thione] | ≥4 | 1 to 10 | 10 to 100 | ≥4 | 1 to 10 | – | – | 84 | – | – | –
11 | Fc1ccccc1CSCCn1c(-c2ccccc2)n[nH]c1=S [Compound 71, 4-[2-(2-Fluorobenzylsulfanyl)ethyl]-3-phenyl-4,5-dihydro-1H-1,2,4-triazole-5-thione] | 3 | < 1 | 10 to 100 | ≥4 | < 1 | – | – | 97 | – | – | –
12 | Fc1ccc(CSCCn2c(-c3ccccc3)n[nH]c2=S)cc1 [Compound 72, 4-[2-(4-Fluorobenzylsulfanyl)ethyl]-3-phenyl-4,5-dihydro-1H-1,2,4-triazole-5-thione] | 3 | < 1 | 1 to 10 | 1 | 1 to 10 | – | – | 96 | – | – | –
13 | Fc1ccc(CSCCn2c(-c3ccccc3)n[nH]c2=S)c(F)c1 [Compound 73, 4-[2-(2,4-Difluorobenzylsulfanyl)ethyl]-3-phenyl-4,5-dihydro-1H-1,2,4-triazole-5-thione] | ≥4 | < 1 | 10 to 100 | 3 | 1 to 10 | 1 to 10 | – | – | – | – | –
14 | O=[N+]([O-])c1ccc(CSCCn2c(-c3ccccc3)n[nH]c2=S)cc1 [Compound 74, 4-[2-(4-Nitrobenzylsulfanyl)ethyl]-3-phenyl-4,5-dihydro-1H-1,2,4-triazole-5-thione] | ≥4 | 1 to 10 | – | 3 | < 1 | – | 95 | 92 | – | – | –
15 | O=[N+]([O-])c1ccccc1CSCCn1c(-c2ccccc2)n[nH]c1=S [Compound 75, 4-[2-(2-Nitrobenzylsulfanyl)ethyl]-3-phenyl-4,5-dihydro-1H-1,2,4-triazole-5-thione] | ≥4 | < 1 | – | 3 | < 1 | – | 69 | 72 | – | – | –
16 | O=[N+]([O-])c1ccc(O)c(CSCCn2c(-c3ccccc3)n[nH]c2=S)c1 [Compound 76, 4-[2-(2-Hydroxy-5-Nitrobenzylsulfanyl)ethyl]-3-phenyl-4,5-dihydro-1H-1,2,4-triazole-5-thione] | 2 | < 1 | – | ≥4 | < 1 | – | 77 | 62 | – | – | –
17 | S=c1[nH]nc(-c2ccccc2)n1CCSCCc1ccccc1 [Compound 77, 4-[2-(2-Phenylethylsulfanyl)ethyl]-3-phenyl-4,5-dihydro-1H-1,2,4-triazole-5-thione] | ≥4 | 1 to 10 | – | 3 | < 1 | – | 92 | 89 | – | – | –
18 | O=C(O)C(CSCCn1c(-c2ccccc2)n[nH]c1=S)c1ccccc1 (centres unmarked) [Compound 78, 2-Phenyl-3-[2-(3-phenyl-5-thioxo-1,4-dihydro-1,2,4-triazol-4-yl)ethylthio]-propionic acid] | 2 | < 1 | 1 to 10 | 3 | < 1 | 10 to 100 | – | – | – | – | –
19 | Cc1ccccc1-c1n[nH]c(=S)n1CCSCc1ccccc1 [Compound 80, 4-[2-(Benzylthio)ethyl]-5-(o-tolyl)-2,4-dihydro-1,2,4-triazole-3-thione] | 3 | < 1 | 10 to 100 | 2 | < 1 | 10 to 100 | – | – | – | – | –
20 | O=C(O)C(CSCCn1c(-c2cccc(-c3ccccc3)c2)n[nH]c1=S)c1ccccc1 (centres unmarked) [Compound 81, 3-{2-[3-(3-Biphenylyl)-5-thioxo-1,4-dihydro-1,2,4-triazol-4-yl]ethylthio}-hydratropic acid] | 3 | < 1 | – | 2 | 1 to 10 | – | 77 | 56 | – | – | –
